Literature values as cited in US20240024337A1, “INTERACTION OF SARS-COV-2 PROTEINS WITH MOLECULAR AND […] […] HOST CELLS AND FORMULATIONS TO TREAT COVID-19” (AKSEERA PHARMA CORP., priority 2020, published 2024).

Tested on: HT22 hippocampal neurons
Conditions: 5 μM; oxygen-glucose deprivation

Compound: C=C(C)[C@@H]1CCC(C)=C[C@H]1c1c(O)cc(CCCCC)cc1O [Cannabidiol, 2-[(1R,6R)-3-Methyl-6-(1-methylethenyl)-2-cyclohexen-1-yl]-5-pentyl-1,3-benzenediol]
- apoptosis and oxidative stress: significantly attenuated
